Experiment [1] deals with T1, recombinant, membrane-bound mPGES-1 (Homo sapiens, UniProt O14684).
T1 sequence (O14684 1-152): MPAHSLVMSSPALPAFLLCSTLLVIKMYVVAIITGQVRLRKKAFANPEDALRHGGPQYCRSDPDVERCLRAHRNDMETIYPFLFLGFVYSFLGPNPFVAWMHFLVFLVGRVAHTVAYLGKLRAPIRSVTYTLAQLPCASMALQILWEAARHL
As to the kind of experiment: Thiobarbituric acid assay (TBA-MDA assay), inhibition of mPGES-1. The experiment is classed as biochemical. Conditions: remaining PGH2 measured at 535 nm. From the text:
Malondialdehyde is a product of lipid peroxidation and reacts with thiobarbituric acid forming a red product that absorbs at 535 nm (W. G. Niehaus, Jr and B. Samuelsson, Eur. J. Biochem 6, 126 (1968). The extinction coefficient of the TBA-MDA conjugate is 1.56×10^5 M^−1 cm^−1 (E. D. Wills. Biochem. J. 113, 315 (1969).
The method used for detection of inhibition of mPGES-1 is based on the detection of the amount of remaining PGH2. This method was described more than 20 years ago by Basevich et al (Bioorg. Khim. 1983, 9(5), 658-665.
The assay used was a modified variant and used citric acid instead of the TCA-TBA-HCl reagent described in the original assay. In this assay recombinant, membrane-bound mPGES-1 was incubated with PGH2. The reaction was stopped by adding citric acid with a final pH of 3 and a large excess of FeCl2 (20 mM) to convert any remaining PGH2 into MDA and […]. TBA reagent was finally added (0.67%) and the samples were heated at 80° C. for 30 min. The absorbance of the conjugate was measured at 535 nm.
The product of mPGES-1 (PGE2) was not measured directly in this assay, but rather the remaining substrate (PGH2) indirectly by adding FeCl2 that converts PGH2 into […] and 12-HHT. As a positive control a known mPGES-1 inhibitor, MK-886, was used and the new inhibitors were compared with the inhibition of MK-886 (% of MK-886 inhibition).

The subject of experiment [2] is A549 lung carcinoma cells. As to the kind of experiment: A549 assay, PGE2 content in supernatant by EIA. The class given is cell-based. Particulars: TNFalfa and IL-1beta induced 16 h, 30 min compound, then 10 μM arachidonic acid 30 min. As for the experimental part: A549 lung carcinoma cells, seeded at a density of 10,000 cells/well, were grown in 96 well tissue culture plates. TNFalfa (5 ng/ml) and […] (5 ng/ml) were added and the cells were incubated for 16 hours. Cells were washed in PBS and test compounds at the appropriate concentration in HBSS/0.1% BSA were added. After 30 minutes incubation with test compounds, 10 μM arachidonic acid was added and cells were further incubated for 30 minutes. Supernatant was collected and analyzed for PGE2 content by EIA according to manufacturer's instructions.

As usually defined, the IC50 is the concentration at which inhibition is half-maximal. By EC50 is commonly meant the concentration at which the effect is half-maximal. A lower EC50 goes with an effect from little substance. As for `O=C(Nc1ccc(C(F)(F)F)cn1)c1cccc(NC(=O)c2ccccc2C(F)(F)F)c1` [Compound 153, 3-[2-(Trifluoromethyl)-benzoylamino]-N-(5-trifluoromethyl-pyridine-2-yl)-benzamide], in experiment [1], the IC50 amounted to 0.049 µM. Besides, the EC50 in experiment [2] (Homo sapiens, A549) is 0.5 µM.
Regarding `C[C@H](NC(=O)c1cccc(NC(=O)c2ccccc2I)c1)c1cccc2ccccc12` [Compound 79, 2-Iodo-N-[3-((S)-1-naphthalen-1-yl-ethylcarbamoyl)-phenyl]-benzamide], the IC50 in experiment [1] came to 0.2 µM. Also, in experiment [2] (Homo sapiens, A549), the concentration for a half-maximal effect (EC50) turned out to be 1.23 µM.
For the compound `C[C@H](NC(=O)c1cccc(NC(=O)c2ccccc2C(F)(F)F)c1)c1cccc2ccccc12` [Compound 77, N-[3-((S)-1-Naphthalen-1-yl-ethylcarbamoyl)-phenyl]-2-trifluoromethyl-benzamide], in experiment [1], the IC50 was 0.29 µM. This compound also had an EC50 in experiment [2] (Homo sapiens, A549) of 0.4 µM.
For the compound `O=C(Nc1cccc2cccnc12)c1cccc(NC(=O)c2ccccc2Cl)c1` [Compound 8, 3-(2-Chloro-benzoylamino)-N-(quinolin-8-yl-)-benzamide], the IC50 in experiment [1] stood at 0.8 µM. In addition, in experiment [2], the EC50 was determined as 2.96 µM.
With `O=C(NCc1cccc2ccccc12)c1cccc(NC(=O)c2ccccc2F)c1` [Compound 104, 2-Fluoro-N-{3-[(naphthalen-1-ylmethyl)-carbamoyl]-phenyl}-benzamide], the half-maximal inhibitory concentration (IC50) in experiment [1] was 1.1 µM. The compound also displayed an EC50 in experiment [2] (Homo sapiens, A549) of 0.64 µM.
For `O=C(NCc1cccc2ccccc12)c1cccc(NC(=O)c2ccccc2Cl)c1` [Compound 117, 2-Chloro-N-{3-[(naphthalen-1-ylmethyl)-carbamoyl]-phenyl}-benzamide] the same measures were 0.26 µM and 1.48 µM.
For `O=C(NC1CCc2ccccc21)c1cccc(NC(=O)c2ccccc2Cl)c1` (centres unmarked) [Compound 34, 3-(2-Chloro-benzoylamino)-N-indan-1-yl-benzamide] the same measures were 0.72 µM and 5.4 µM.
As to `O=C(NCc1ccccc1N1CCOCC1)c1cccc(NC(=O)c2ccccc2C(F)(F)F)c1` [Compound 149, N-(2-morpholin-4-yl-benzyl)-3-(2-trifluoromethyl-benzoylamino)-benzamide], the IC50 in experiment [1] turned out to be 2 µM.
For `C[C@@H](NC(=O)c1cccc(NC(=O)c2ccccc2C(F)(F)F)c1)c1cccc2ccccc12` [Compound 93, N-[3-((R)-1-Naphthalen-1-yl-ethylcarbamoyl)-phenyl]-2-trifluoromethyl-benzamide], the IC50 in experiment [1] was found to be 0.12 µM. This compound also showed an EC50 in experiment [2] (Homo sapiens, A549) of 0.45 µM.

Values taken from patent US20100324086A1, “COMPOUNDS AND METHODS” (Novasaid AB, priority 2008, published 2010).
